Assay results reported in patent publication US6432879B1, “Substituted phenyl uracils” (Bayer Aktiengesellschaft, priority 1997, dated 2002).
Each block holds one compound with its values, some of them ahead of it.

Experiments:
[1] = tested on: weeds; experiment: Pre-emergence test, action against weeds; assay type: in vivo; details: soil sprayed about 24 hours after sowing, rated after three weeks vs untreated control
Protocol: (§1) Solvent: 5 parts by weight of acetone
(§2) Emulsifier: 1 part by weight of alkylaryl polyglycol ether
To produce a suitable preparation of active compounds, 1 part by weight of active compound is mixed with the stated amount of solvent, the stated amount of emulsifier is added and the concentrate is diluted with water to the desired concentration.
Seeds of the test plants are sown in normal soil. After about 24 hours, the soil is sprayed with the preparation of active compounds such that the particular amounts of active compound desired are applied per unit area. The concentration of the spray liquor is chosen so that the particular amounts of active compound desired are applied in 1000 l of water/ha.
(§3) After three weeks, the degree of damage to the plants is rated in % damage in comparison to the development of the untreated control.
(§4) 0%=no effect (like untreated control)

[2] = tested on: weeds; experiment: Post-emergence test, activity against weeds; assay type: in vivo; details: test plants of 5-15 cm sprayed, rated after three weeks vs untreated control
Protocol: as §1, §2
To produce a suitable preparation of active compound, 1 part by weight of active compound is mixed with the stated amount of solvent, the stated amount of emulsifier is added and the concentrate is diluted with water to the desired concentration.
Test plants of a height of 5-15 cm are sprayed with the preparation of active compound such that the particular amounts of active compound desired are applied per unit area. The concentration of the spray liquor is chosen so that the particular amounts of active compound desired are applied in 1000 l of water/ha.
as §3, §4

SMILES: O=c1cc(C(F)(F)F)[nH]c(=O)n1-c1ccc(OCc2ccc(Cl)cc2)cc1[N+](=O)[O-] [Example 1, 1-[4-(4-chloro-phenylmethoxy)-2nitrophenyl]-4-trifluoromethyl-3,6-dihydro-2,6-dioxo-1(2H)-pyrimidin]
melting point: 237 °C

SMILES: O=c1cc(C(F)(F)F)[nH]c(=O)n1-c1ccc(OCc2ccc(Cl)nc2)cc1[N+](=O)[O-] [Example 2, 1-[4-(2-chloro-pyridin-5-yl-methoxy)-2-nitrophenyl]-4-trifluoromethyl-3,6-dihydro-2,6-dioxo-1(2H)-pyrimidine]
melting point: 209 °C

SMILES: Cn1c(C(F)(F)F)cc(=O)n(-c2ccc(OCc3ccc(Cl)cc3)cc2[N+](=O)[O-])c1=O [Example 3, 1-[4-(4-chloro-phenylmethoxy)-2-nitrophenyl]-3-methyl-4-trifluoromethyl-3,6-dihydro-2,6-dioxo-1(2H)-pyrimidine]
action against weeds (degree of damage to the plants) [1]: strong action
melting point: 159 °C

The next lines start with results.

melting point: 193 °C
SMILES: Nn1c(C(F)(F)F)cc(=O)n(-c2ccc(OCc3ccc(Cl)nc3)cc2[N+](=O)[O-])c1=O [Example 4, 3-amino-1-[4-(2-chloro-pyridin-5-yl-methoxy)-2-nitro-phenyl]-4-trifluoromethyl-3,6-dihydro-2,6-dioxo-1(2H)-pyrimidine]

melting point: 166 °C
SMILES: Cn1c(C(F)(F)F)cc(=O)n(-c2ccc(OCc3ccc(Cl)cc3)cc2N)c1=O [Example 5, 1-[2-amino-4-(4-chloro-phenylmethoxy)-phenyl]-3-methyl-4-trifluoromethyl-3,6-dihydro-2,6-dioxo-1(2H)-pyrimidine]
action against weeds (degree of damage to the plants) [1]: strong action
activity against weeds (degree of damage to the plants) [2]: strong activity

melting point: 230 °C
SMILES: CC(=O)Nc1cc(OCc2ccc(Cl)cc2)ccc1-n1c(=O)cc(C(F)(F)F)n(C)c1=O [Example 7, 1-[2-acetylamino-4-(4-chloro-phenylmethoxy)-phenyl]-3-methyl-4-trifluoromethyl-3,6-dihydro-2,6-dioxo-1(2H)-pyrimidine]
action against weeds (degree of damage to the plants) [1]: strong action
activity against weeds (degree of damage to the plants) [2]: strong activity
